Key:
Muscarinic M2 = Muscarinic M2 (Homo sapiens, UniProt P08172); assay: Eurofins lead profiling screen (radioligand binding)
Serotonin (5-HT3) = Serotonin (5-HT3) (Homo sapiens, UniProt P46098); assay: as above
Serotonin (5-HT1A) = Serotonin (5-HT1A) (Homo sapiens, UniProt P08908); assay: as above
Sigma σ1 = Sigma σ1 (Homo sapiens, UniProt Q99720); assay: as above
Dopamine D3 = Dopamine D3 (Homo sapiens, UniProt P35462); assay: as above
Glucocorticoid = Glucocorticoid (Homo sapiens, UniProt P04150); assay: as above
Adrenergic α1D = Adrenergic α1D (Homo sapiens, UniProt P25100); assay: as above
Dopamine D4.2 = Dopamine D4.2 (Homo sapiens, UniProt P21917, DEL265-296); assay: as above
Tachykinin NK1 = Tachykinin NK1 (Homo sapiens, UniProt P25103); assay: as above
Potassium Channel [KATP] = Potassium Channel [KATP] (Cricetus cricetus, UniProt Q09427); assay: as above; set-up: species or system Hamster
Opiate δ1 (OP1, DOP) = Opiate δ1 (OP1, DOP) (Homo sapiens, UniProt P41143); assay: as above
Opiate δ1 (OP1, DOP), sequence (P41143 whole entry): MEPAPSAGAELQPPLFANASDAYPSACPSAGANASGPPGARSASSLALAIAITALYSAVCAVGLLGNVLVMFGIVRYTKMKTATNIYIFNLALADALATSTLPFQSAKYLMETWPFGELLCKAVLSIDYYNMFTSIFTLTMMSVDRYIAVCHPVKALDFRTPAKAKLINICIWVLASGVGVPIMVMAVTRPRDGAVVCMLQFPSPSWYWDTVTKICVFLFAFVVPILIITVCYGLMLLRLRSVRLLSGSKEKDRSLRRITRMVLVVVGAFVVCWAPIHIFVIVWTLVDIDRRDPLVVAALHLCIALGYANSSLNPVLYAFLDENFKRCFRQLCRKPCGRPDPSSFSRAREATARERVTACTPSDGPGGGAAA

Adrenergic β1 = Adrenergic β1 (Homo sapiens, UniProt P08588); assay: as above
GABAB1A = GABAB1A (Homo sapiens, UniProt Q9UBS5); assay: as above
Cannabinoid CB1 = Cannabinoid CB1 (Homo sapiens, UniProt P21554); assay: as above
Glutamate, NMDA, Agonism = assay: as above; set-up: species or system Rat
Opiate μ (OP3, MOP) = Opiate μ (OP3, MOP) (Homo sapiens, UniProt P35372); assay: as above
Nav1.5 = Nav1.5 (Homo sapiens, UniProt Q14524); assay: Cardiac ion channel MPC selectivity panel; format: cell-based
[1] = Mouse PBL (plasma:brain level) study; format: in vivo
Experimental: fortified tube and immediately placed on wet ice. The blood sample was then centrifuged (1700 rcf, 5 minutes, 4 °C) to obtain plasma sample. At the same post-administration time point, a whole brain sample was obtained by rapid dissection, rinsed with PBS, and immediately frozen in individual tissue collection box (dry ice). All brain and plasma samples were stored at -80 °C until
Sample Analysis: Concentrations in plasma and brain homogenates were quantified by liquid chromatography tandem mass spectrometry (LC-MS/MS). Whole brains were homogenized in 3 mL of 70:30 IPA:water in a mini bead beater for 3 min, and centrifuged at 3,500 g for 5 min. 5 uL of the supernatant was diluted in 15 uL of blank plasma for quantification of the analytes. Plasma samples were centrifuged at 3,500 g for 5 min. A standard curve was generated by diluting the analytes DMSO stocks with blank plasma to obtain a final concentration of 10,000 ng/mL followed by a serial dilution down to 0.5 ng/mL. Quality controls were generated by a serial dilution of the 5,000 ng/mL standard curve solution in blank plasma to obtain 3 concentrations of 500, 50, and 5 ng/mL. 20 uL of brain diluted in plasma, plasma, blank plasma, standard curve and QC samples were loaded in a V-bottom 96-well plate. 120 uL of acetonitrile containing 0.05 uM carbamazepine (internal standard) was added to each well and the plate was centrifuged at 3,500 g for 5 min. 60 uL of the supernatant of each well (protein free) was transferred to a new 96-well plate containing 60 uL of water. The plates were sealed for analysis by LC-MS/MS.
Plasma and brain tissue samples originating from in vivo studies were analyzed by electrospray ionization using an AB Sciex Q-TRAP 5500 (Foster City, CA) that was coupled to a Shimadzu LC-20AD pump (Columbia, MD) and a Leap Technologies CTC PAL auto-sampler (Carrboro, NC). Analytes were separated by gradient elution using a C18 column (3 x 50 mm, 3 mm; Fortis Technologies Ltd, Cheshire, UK) that was thermostated at 40 °C. HPLC mobile phase A was 0.1% formic acid in water (pH unadjusted); mobile phase B was 0.1% formic acid in acetonitrile (pH
min, with an isocratic hold for 0.5 min, before transitioning to 10% B over 0.05 min. The column was re-equilibrated (1 min) before the next sample injection. The total run time was 2.55 min, and the HPLC flow rate was 0.5 mL/min. The source temperature was set at 500 °C, and mass spectral analyses were performed using a Turbo-Ion spray source in positive ionization mode (5.0-kV spray voltage) and using multiple-reaction monitoring of transitions specific for the analytes. All data were analyzed using AB Sciex Analyst 1.5.1 software.
Brain plasma concentration ratio (Kp) was calculated by dividing brain concentration by plasma concentration for each animal. Unbound brain to unbound plasma concentration ratio (Kp,uu) is calculated using the following formula: Kp,uu = (Brain ng/g x brain fu)/(plasma ng/mL x plasma

Kir2.1 = Kir2.1 (Homo sapiens, UniProt P63252); assay: Cardiac ion channel MPC selectivity panel; format: cell-based
[2] = system: other K2P channels except TREK-2; assay: K2P channel selectivity (panel); format: cell-based
Description: Herein we describe our continuing work on the K2P family of potassium ion channels with the chemical optimization of a selective and CNS penetrant series of TREK inhibitors, culminating in the discovery of ONO-TR-772 (VU6018042).

Kv1.5 = Kv1.5 (Homo sapiens, UniProt P22460); assay: Cardiac ion channel MPC selectivity panel; format: cell-based
[3] = Plasma protein binding (human); format: in vitro ADME; details: pH 7.4, read-out: PPB human (converted)
Experimental: 0.3% DMSO - ΔRatio of 1 µM control compound)x100
In vitro Plasma protein binding and Brain homogenate binding: Determination of fraction unbound (f u) in plasma was conducted in vitro via equilibrium dialysis using HTDialysis (HTD) membrane plates. The top half of the plate was filled with 100 uL of Dubelco’s Phosphate Buffered Saline, pH 7.4 (DPBS). Compounds were diluted into plasma from each species (5 µM final concentration), which was aliquoted in triplicate to the ‘bottom half’ of the prepared HTD plate wells. The HTD plate was sealed and incubated for 6 hours at 37 °C. Following incubation, each well (both top and bottom halves) were transferred (20 µL) to the corresponding wells of a 96-shallow-well (V-bottom) plate. The daughter plates were then matrix-matched (DPBS side wells received equal volume of plasma, and plasma side wells received equal volume of DPBS), and extraction solution (120 µL; acetonitrile containing 50 nM carbamazepine as IS) was added to all wells of both daughter plates to precipitate protein and extract test article. The plates were then sealed and centrifuged (3500 rcf) for 10 minutes at ambient temperature. Supernatant (60 µL) from each well of the daughter plates was then transferred to the corresponding wells of new daughter plates (96-shallow-well, V bottom) containing water (Milli-Q, 60 µL/well), and the plates were sealed in preparation for LC-MS/MS analysis (see LC-MS/MS analysis method below).
The unbound fraction (f u) was calculated following the equation below, and mean values for each species were calculated from 3 replicates. A similar approach was used to determine the degree of brain homogenate binding, which employed the same methodology and procedure with the following modifications: 1) a final compound concentration of 1 μM was used, 2) naïve rat brains were homogenized in DPBS (1:3 composition of brain: DPBS, w/w) using a Mini-Bead Beater™ machine in order to obtain brain homogenate, which was then treated in the same manner as the plasma samples in the previously described plasma protein binding assay. Fraction unbound for both plasma and brain samples was determined using Equation 4.

hERG = hERG (Homo sapiens, UniProt Q12809); assay: Cardiac ion channel MPC selectivity panel; format: cell-based
Cav1.2 = Cav1.2 (Homo sapiens, UniProt Q13936); assay: Cardiac ion channel MPC selectivity panel; format: cell-based
Cav1.2, sequence (Q13936 whole entry): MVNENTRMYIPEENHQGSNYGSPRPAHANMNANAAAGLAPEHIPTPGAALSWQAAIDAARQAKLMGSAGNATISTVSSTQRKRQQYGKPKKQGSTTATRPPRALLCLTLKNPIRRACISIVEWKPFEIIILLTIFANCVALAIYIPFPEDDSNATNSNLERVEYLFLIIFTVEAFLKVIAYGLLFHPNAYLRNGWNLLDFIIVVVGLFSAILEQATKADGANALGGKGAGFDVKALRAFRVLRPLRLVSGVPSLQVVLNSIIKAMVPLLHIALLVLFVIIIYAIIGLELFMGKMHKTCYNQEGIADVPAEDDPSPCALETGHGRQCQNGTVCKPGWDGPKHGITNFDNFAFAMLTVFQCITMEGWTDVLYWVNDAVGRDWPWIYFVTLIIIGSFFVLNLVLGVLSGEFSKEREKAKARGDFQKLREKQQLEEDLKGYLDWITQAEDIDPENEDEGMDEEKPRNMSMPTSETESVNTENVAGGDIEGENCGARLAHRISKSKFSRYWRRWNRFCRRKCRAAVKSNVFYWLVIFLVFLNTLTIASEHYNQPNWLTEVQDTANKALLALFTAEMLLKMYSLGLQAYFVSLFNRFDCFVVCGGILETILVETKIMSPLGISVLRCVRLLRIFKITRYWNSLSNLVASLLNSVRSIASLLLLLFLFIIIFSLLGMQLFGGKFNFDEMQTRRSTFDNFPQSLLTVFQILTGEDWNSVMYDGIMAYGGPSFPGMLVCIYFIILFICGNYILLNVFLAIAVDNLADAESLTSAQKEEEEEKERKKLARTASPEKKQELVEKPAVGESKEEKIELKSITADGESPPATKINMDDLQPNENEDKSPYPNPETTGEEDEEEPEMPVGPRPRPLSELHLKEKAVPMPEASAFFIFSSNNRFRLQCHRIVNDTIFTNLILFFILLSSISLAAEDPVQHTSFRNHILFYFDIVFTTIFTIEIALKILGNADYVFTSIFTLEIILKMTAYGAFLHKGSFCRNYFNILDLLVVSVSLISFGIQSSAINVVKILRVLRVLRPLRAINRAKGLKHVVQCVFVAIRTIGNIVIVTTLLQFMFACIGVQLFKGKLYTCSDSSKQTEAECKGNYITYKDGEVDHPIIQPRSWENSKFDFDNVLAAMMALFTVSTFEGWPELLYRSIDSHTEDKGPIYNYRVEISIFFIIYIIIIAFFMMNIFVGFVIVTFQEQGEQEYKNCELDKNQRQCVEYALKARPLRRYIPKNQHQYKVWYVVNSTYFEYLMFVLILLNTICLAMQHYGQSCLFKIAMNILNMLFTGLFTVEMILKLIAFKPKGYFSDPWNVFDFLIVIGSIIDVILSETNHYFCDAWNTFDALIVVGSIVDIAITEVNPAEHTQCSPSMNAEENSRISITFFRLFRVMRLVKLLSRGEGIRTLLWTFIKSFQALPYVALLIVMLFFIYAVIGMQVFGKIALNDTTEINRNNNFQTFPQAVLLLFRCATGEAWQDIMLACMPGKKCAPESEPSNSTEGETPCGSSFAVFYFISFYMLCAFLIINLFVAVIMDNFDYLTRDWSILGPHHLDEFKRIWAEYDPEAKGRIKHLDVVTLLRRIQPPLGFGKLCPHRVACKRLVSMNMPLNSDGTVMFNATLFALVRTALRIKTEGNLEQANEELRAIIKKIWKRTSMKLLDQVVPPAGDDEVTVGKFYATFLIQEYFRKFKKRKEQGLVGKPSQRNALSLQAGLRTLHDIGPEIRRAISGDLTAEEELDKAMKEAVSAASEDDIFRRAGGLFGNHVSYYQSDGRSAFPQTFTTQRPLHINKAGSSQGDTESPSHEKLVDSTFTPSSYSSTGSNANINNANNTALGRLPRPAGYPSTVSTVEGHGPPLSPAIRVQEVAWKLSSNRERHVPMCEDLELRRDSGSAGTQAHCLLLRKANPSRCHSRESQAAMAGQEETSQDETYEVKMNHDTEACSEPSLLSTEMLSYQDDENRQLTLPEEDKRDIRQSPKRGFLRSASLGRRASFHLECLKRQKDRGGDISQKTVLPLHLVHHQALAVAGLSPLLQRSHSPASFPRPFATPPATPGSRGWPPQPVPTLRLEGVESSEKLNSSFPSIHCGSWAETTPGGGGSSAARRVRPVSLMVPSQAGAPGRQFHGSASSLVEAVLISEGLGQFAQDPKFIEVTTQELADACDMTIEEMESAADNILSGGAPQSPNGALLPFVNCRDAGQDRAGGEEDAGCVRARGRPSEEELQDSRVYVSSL
Cav1.2, sequence (Q08289 whole entry partner): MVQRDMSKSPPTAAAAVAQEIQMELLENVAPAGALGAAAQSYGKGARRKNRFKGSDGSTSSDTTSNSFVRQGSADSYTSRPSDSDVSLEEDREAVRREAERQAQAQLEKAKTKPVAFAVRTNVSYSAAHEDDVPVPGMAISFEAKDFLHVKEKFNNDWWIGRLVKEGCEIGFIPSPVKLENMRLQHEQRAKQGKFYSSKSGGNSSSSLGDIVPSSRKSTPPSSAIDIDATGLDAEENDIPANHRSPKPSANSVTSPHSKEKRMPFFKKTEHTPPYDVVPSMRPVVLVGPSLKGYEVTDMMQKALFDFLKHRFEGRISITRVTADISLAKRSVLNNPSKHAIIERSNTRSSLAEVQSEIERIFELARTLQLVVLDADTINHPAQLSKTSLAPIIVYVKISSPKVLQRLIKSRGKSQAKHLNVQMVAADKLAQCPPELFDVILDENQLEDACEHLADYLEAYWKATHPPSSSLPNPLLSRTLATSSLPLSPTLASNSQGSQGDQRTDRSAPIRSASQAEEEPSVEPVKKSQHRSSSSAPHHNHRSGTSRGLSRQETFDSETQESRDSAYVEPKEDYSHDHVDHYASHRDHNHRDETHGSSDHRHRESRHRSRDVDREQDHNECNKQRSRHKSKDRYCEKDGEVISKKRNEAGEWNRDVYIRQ
Cav1.2, sequence (P54289 25-956 partner limits assumed): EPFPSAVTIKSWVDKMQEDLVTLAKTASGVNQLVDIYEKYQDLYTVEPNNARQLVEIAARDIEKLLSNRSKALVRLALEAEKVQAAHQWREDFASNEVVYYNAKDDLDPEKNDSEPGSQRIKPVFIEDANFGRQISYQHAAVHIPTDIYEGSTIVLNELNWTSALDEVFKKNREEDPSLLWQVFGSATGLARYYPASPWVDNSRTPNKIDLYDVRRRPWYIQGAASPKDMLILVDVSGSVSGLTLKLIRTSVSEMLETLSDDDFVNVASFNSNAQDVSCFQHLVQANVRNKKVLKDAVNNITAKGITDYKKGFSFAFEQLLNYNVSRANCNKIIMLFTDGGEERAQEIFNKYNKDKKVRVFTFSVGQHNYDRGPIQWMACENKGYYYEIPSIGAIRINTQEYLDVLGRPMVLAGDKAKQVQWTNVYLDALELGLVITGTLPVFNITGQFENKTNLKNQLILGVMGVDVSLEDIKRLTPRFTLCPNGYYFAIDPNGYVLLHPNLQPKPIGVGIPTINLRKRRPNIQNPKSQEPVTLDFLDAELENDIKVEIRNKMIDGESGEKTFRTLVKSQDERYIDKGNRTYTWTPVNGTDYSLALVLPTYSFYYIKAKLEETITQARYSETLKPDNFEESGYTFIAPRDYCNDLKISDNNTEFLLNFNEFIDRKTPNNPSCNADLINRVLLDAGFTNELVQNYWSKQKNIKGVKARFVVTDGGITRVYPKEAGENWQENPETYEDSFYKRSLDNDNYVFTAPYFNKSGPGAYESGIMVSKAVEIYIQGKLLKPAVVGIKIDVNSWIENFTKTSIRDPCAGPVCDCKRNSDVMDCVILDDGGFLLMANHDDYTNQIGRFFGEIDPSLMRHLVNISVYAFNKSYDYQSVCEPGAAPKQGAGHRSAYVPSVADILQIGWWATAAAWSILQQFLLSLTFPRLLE
Cav1.2, sequence (P54289 957-1103 partner limits assumed): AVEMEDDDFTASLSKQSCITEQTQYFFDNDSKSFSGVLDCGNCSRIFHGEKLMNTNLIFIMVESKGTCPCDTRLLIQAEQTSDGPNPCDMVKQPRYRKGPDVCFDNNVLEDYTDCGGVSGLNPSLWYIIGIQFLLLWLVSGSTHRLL

TREK-1 = TREK-1 (Mus musculus, UniProt P97438); assay: Mouse manual patch clamp (MPC); format: cell-based

Muscarinic M2, sequence (P08172 whole entry): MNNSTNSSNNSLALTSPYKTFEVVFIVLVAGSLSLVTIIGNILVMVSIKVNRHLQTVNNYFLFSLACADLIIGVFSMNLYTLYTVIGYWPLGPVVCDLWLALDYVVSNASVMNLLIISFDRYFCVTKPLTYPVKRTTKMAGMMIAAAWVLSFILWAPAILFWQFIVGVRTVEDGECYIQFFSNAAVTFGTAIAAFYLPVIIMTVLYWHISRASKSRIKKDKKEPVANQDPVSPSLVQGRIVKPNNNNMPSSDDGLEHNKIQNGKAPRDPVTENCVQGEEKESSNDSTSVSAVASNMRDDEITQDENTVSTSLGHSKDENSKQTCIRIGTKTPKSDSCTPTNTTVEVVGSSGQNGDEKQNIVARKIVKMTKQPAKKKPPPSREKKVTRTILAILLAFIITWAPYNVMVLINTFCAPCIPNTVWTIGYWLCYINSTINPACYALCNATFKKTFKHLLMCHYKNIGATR
Sigma σ1, sequence (Q99720 whole entry): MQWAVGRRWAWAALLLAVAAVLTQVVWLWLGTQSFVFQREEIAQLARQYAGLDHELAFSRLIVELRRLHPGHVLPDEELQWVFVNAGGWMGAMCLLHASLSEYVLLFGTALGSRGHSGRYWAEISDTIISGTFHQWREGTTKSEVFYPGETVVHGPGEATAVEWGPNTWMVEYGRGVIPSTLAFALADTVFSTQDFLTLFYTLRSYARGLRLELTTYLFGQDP

SMILES: O=C(NCc1ccc(OC(F)(F)F)cc1F)c1ccc2ncnn2c1 [ONO-2920632]
- inhibition at 10 µM (Muscarinic M2): 0%
- inhibition at 10 µM (Serotonin (5-HT3)): -4%
- inhibition at 10 µM (Serotonin (5-HT1A)): 4%
- inhibition at 10 µM (Sigma σ1): 30%
- inhibition at 10 µM (Dopamine D3): 12%
- inhibition at 10 µM (Glucocorticoid): -4%
- inhibition at 10 µM (Adrenergic α1D): 26%
- inhibition at 10 µM (Dopamine D4.2): 5%
- inhibition at 10 µM (Tachykinin NK1): 13%
- inhibition at 10 µM (Potassium Channel [KATP]): -6%
- inhibition at 10 µM (Opiate δ1 (OP1, DOP)): -8%
- inhibition at 10 µM (Adrenergic β1): -1%
- inhibition at 10 µM (GABAB1A): 0%
- inhibition at 10 µM (Cannabinoid CB1): -23%
- % Inhibition at 10 µM (Glutamate, NMDA, Agonism): 2%
- inhibition at 10 µM (Opiate μ (OP3, MOP)): 15%

SMILES: Cc1cc(C#Cc2ccc(F)cc2)cnc1NC(=O)c1cc(NC(=O)OC(C)(C)C)ccc1Cl [Compound 14c]
- % at 10 μM, Nav1.5 (Nav1.5): < 50%
- Tmax ([1]; CD-1, brain, mouse, 10 mg/kg IP): 4 h
- Cmax total brain concentration ([1]; CD-1 male mouse, 10 mg/kg PO): 252 nM
- brain AUC ([1]; CD-1 male mouse, 10 mg/kg PO): 2269 nM·h
- Tmax ([1]; brain, CD-1 male mouse, 10 mg/kg PO): 4 h
- Cmax total brain exposure ([1]; mouse, 10 mg/kg IP): 888 nM
- brain AUC ([1]; mouse, 10 mg/kg IP): 12,261 h*nM
- Cmax unbound brain ([1]; mouse, 10 mg/kg IP, based on mouse brain homogenate binding): 5.3 nM
- % at 10 μM, Kir2.1 (Kir2.1): < 50%
- activity versus other K2P channels except TREK-2 [2]: > 10 µM
- % at 10 μM, Kv1.5 (Kv1.5): < 50%
- fraction unbound at 6 h, 5 µM [3]: 0.006
- % at 10 μM, hERG (hERG): < 50%
- % at 10 μM, Cav1.2 (Cav1.2): < 50%
- IC50 (TREK-1): 67 nM
